Source: US20260284095A1 (Mayo Foundation for Medical Education and Research, priority 2023, published 2026)

What was measured:
[1] = system: GMR>Tau Drosophila (tau-mediated eye degeneration); experiment: Dasatinib in Drosophila tau eye degeneration model; assay type: in vivo, Drosophila melanogaster; conditions: fly food with dasatinib 1 μM or 10 μM vs DMSO 0.5%; flies aged 5 days; blinded eye score
[2] = system: DDR2; experiment: ASO screen in H4 neuroglioma cells, DDR2 knock-down; assay type: cell-based; conditions: ASO 10 nM and 100 nM in the screen
Procedure: (§1) Expression levels of DDR2, KANK2, and STOM were confirmed to have similar expression levels in the H4 neuroglioma cells (ATCC cat #HTB-148) and PSP brain homogenate (FIG. 27), and then ASOs described in Example 3 were screened for various characteristics in H4 cells. cDNA reverse transcription kits High-Capacity cDNA Reverse Transcription Kit (High-cap, Thermo Fisher Scientific, cat #4368814) and SuperScript™ IV VILO™ (VILO, Thermo Fisher Scientific, cat #11756050) were assessed. Both cDNA synthesis kits tested quantitatively reverse transcribed RNA into cDNA (FIG. 28). qPCR master mixes TaqMan™ Fast Advanced (Fast Advance, Thermo Fisher Scientific, cat #4444556) and TaqMan™ Universal PCR Master Mix (Universal, Thermo Fisher Scientific, cat #4364340) were assessed. Both qPCR master mixes quantitatively amplified cDNA and generated detectable signals (FIG. 29). Multiplexed qPCR assays were also performed. Duplexed gene quantification yielded similar results as singleton qPCR setups (FIG. 30). ASOs targeting PPIB were used as a positive control to confirm delivery of the ASOs to H4 cells and establish ASO screening parameters (FIG. 31).
(§2) ASOs described in Example 3 were screened in the H4 neuroglioma cells. Different concentrations of ASOs (10 nM and 100 nM) were administered and knock-down efficiency (measured by fold change of mRNA compared to non-targeting ASO treated controls) and ASO toxicity (measured by LDH assay) were determined (FIGS. 32A-32F).
(§3) Three ASO hits were selected for each target (DDR2: D4, D5, D9; KANK2: K4, K5, K10; STOM: S1, S4, S10). The knock-down efficiency (mRNA change) and ASO safety (cell toxicity as measured by LDH assay and viability as measured by XTT assay) were repeated/performed to validate the hits, as shown in FIG. 33A-33C.
(§4) Knock-down was assessed by measuring polypeptide levels (FIGS. 35, 40, 41) using western Blot.

[3] = system: DDR2 mRNA; experiment: ASO D5 target engagement in iPSC-derived neurons; assay type: cell-based
Procedure: (§5) Induced pluripotent stem cells (iPSCs) were examined as a model to assess target engagement of the ASO D5 (targeting DDR2). […] ASO D5 was administered to iPSCs-derived astrocytes and neurons separately following the schematic depicted in FIGS. 38-39.

[4] = system: DDR2 mRNA; experiment: ASO D5 target engagement in iPSC-derived astrocytes; assay type: cell-based
Procedure: as §5

[5] = system: KANK2; experiment: ASO screen in H4 neuroglioma cells, KANK2 knock-down; assay type: cell-based; conditions: ASO 10 nM and 100 nM in the screen
Procedure: as §1, §2, §3, §4

[6] = system: STOM; experiment: ASO screen in H4 neuroglioma cells, STOM knock-down; assay type: cell-based; conditions: ASO 10 nM and 100 nM in the screen
Procedure: as §1, §2, §3, §4

Cc1nc(Nc2ncc(C(=O)Nc3c(C)cccc3Cl)s2)cc(N2CCN(CCO)CC2)n1 [dasatinib]
tau-mediated eye degeneration [1]: dosage-dependent reduction

D4: ASO targeting DDR2, ACAGAGTCAGGACAAATGGC, 2'-MOE wings, phosphorothioate bonds (all phosphorothioate, sugars by position and methylation of C not given here; 2'-MOE wings)
knock-down efficiency of DDR2 (fold change of mRNA compared to non-targeting ASO; polypeptide by western blot) [2]: hits

D5: ASO targeting DDR2, CACTCTTGCAGCAGACATTC, 2'-MOE wings, phosphorothioate bonds (all phosphorothioate, sugars by position and methylation of C not given here; 2'-MOE wings)
knock-down efficiency of DDR2 (fold change of mRNA compared to non-targeting ASO; polypeptide by western blot) [2]: hits | DDR2 mRNA [3]: reduced DDR2 mRNA | DDR2 mRNA [4]: reduced DDR2 mRNA

D9: ASO targeting DDR2, CTGCTCATTCCAAAGTCAGC, 2'-MOE wings, phosphorothioate bonds (all phosphorothioate, sugars by position and methylation of C not given here; 2'-MOE wings)
knock-down efficiency of DDR2 (fold change of mRNA compared to non-targeting ASO; polypeptide by western blot) [2]: hits

K4: ASO targeting KANK2, GCAAGCCAGTCTACATCAAG, 2'-MOE wings, phosphorothioate bonds (all phosphorothioate, sugars by position and methylation of C not given here; 2'-MOE wings)
knock-down efficiency of KANK2 (fold change of mRNA compared to non-targeting ASO; polypeptide by western blot) [5]: hits

K5: ASO targeting KANK2, CCCTCAGACACCCACAATTA, 2'-MOE wings, phosphorothioate bonds (all phosphorothioate, sugars by position and methylation of C not given here; 2'-MOE wings)
knock-down efficiency of KANK2 (fold change of mRNA compared to non-targeting ASO; polypeptide by western blot) [5]: hits

K10: ASO targeting KANK2, CGTCCTGTCTTGCTTTGTCT, 2'-MOE wings, phosphorothioate bonds (all phosphorothioate, sugars by position and methylation of C not given here; 2'-MOE wings)
knock-down efficiency of KANK2 (fold change of mRNA compared to non-targeting ASO; polypeptide by western blot) [5]: hits

S1: ASO targeting STOM, GGACTACGAATTCACAAGGC, 2'-MOE wings, phosphorothioate bonds (all phosphorothioate, sugars by position and methylation of C not given here; 2'-MOE wings)
knock-down efficiency of STOM (fold change of mRNA compared to non-targeting ASO; polypeptide by western blot) [6]: hits

S4: ASO targeting STOM, GCAATGGTGGTCAGTGTCTG, 2'-MOE wings, phosphorothioate bonds (all phosphorothioate, sugars by position and methylation of C not given here; 2'-MOE wings)
knock-down efficiency of STOM (fold change of mRNA compared to non-targeting ASO; polypeptide by western blot) [6]: hits

S10: ASO targeting STOM, ACACGCTCCACCTTTATTCC, 2'-MOE wings, phosphorothioate bonds (all phosphorothioate, sugars by position and methylation of C not given here; 2'-MOE wings)
knock-down efficiency of STOM (fold change of mRNA compared to non-targeting ASO; polypeptide by western blot) [6]: hits
